Measured values: patent EP0061208A1, “Insecticidal control of ectoparasites” (JANSSEN PHARMACEUTICA N.V., priority 1981, dated 1982)

Test system: lice
Assay: in-vivo experiment: single pour-on application to louse-infested sheep, evaluation of louse infestation
Set-up: key: +: numphs or adults were detected; -: no live lice were found
Settings: single pour-on along the back, solution 5% by weight in 2-(Z-butoxyethoxy)ethanol; for louse infestation, weeks 1: after 1 week; for louse infestation, weeks 2: after 2 weeks; for louse infestation, weeks 3: after 3 weeks; for louse infestation, weeks 4: after 4 weeks; for louse infestation, weeks 6.5: after 6.5 weeks
Experimental: The efficacy of the ectoparasiticidal method and compositions of the present invention is illustrate by the following in-vivo experiment: • 4 moderately louse-infested sheep were given a single pour-on application of a solution comprising 5% by weight of cypermetrin • in 2-(Z-butoxyethoxy)ethanol. • The louse infestation was evaluated after 1, 2, 3, 4 and 6. 5 weeks. The evaluation of the louse-infestation is illustrated in table 1 wherein • + means that numphs or adults were detected, and • - means that no live lice were found.

CC1(C)C(C=C(Cl)Cl)C1C(=O)OC(C#N)c1cccc(Oc2ccccc2)c1 (stereo not shown) [cypermetrin, [[cyano(3-phenoxyphenyl)]methyl] 2-(2,2-dichloroethenyl)-3,3-dimethylcyclopropanecarboxylate]
louse infestation, weeks 1 (dose 10 mg/kg, 10 mg/kg): + and - | louse infestation, weeks 2 (dose 10 mg/kg, 10 mg/kg): + and - | louse infestation, weeks 3 (dose 10 mg/kg, 10 mg/kg): + and - | louse infestation, weeks 4 (dose 10 mg/kg, 10 mg/kg): + and - | louse infestation, weeks 6.5 (dose 10 mg/kg): - | louse infestation, weeks 1 (dose 20 mg/kg): - | louse infestation, weeks 2 (dose 20 mg/kg): - | louse infestation, weeks 3 (dose 20 mg/kg): - | louse infestation, weeks 4 (dose 20 mg/kg): - | louse infestation, weeks 6.5 (dose 20 mg/kg): -
